Key:
[1] = tested on: Fibrosarcoma cells implanted subcutaneously; conditions: 10 mg/kg daily subcutaneous
Protocol: Fibrosarcoma cells were implanted subcutaneously into the flank of athymic nude mice. […] Mice were given daily subcutaneous administrations of 10 mg/kg of peptides or vehicle.

[2] = tested on: GST-MT1-MMP cytoplasmic tail fusion protein (GST-MT); conditions: recombinant Src kinase, ATP, western blot
Protocol: The GST-MT1-MMP cytoplasmic tail fusion protein (GST-MT) was incubated with recombinant Src kinase in the presence of ATP and the phosphorylation products were analyzed by western blotting.

tumor cell lines = conditions: grown atop of a collagen film (2D)
Protocol: (§1) Different tumor cell lines were incubated with the peptides and grown atop of a collagen film (2D) or within a collagen gel (3D).

[3] = tested on: medulloblastoma cells (DAOY); conditions: 3D collagen gel
Protocol: as §1

[4] = tested on: breast adenocarcinoma cells (MDA-MB-231); conditions: breast cancer cells, 3D collagen gel
Protocol: as §1

[5] = tested on: prostate adinocarcinoma cells (PC-3); conditions: prostate cancer cells, 3D collagen gel
Protocol: as §1

[6] = tested on: fibrosarcoma cells (HT-1080); conditions: 3D collagen gel
Protocol: as §1

[7] = tested on: glioblastoma cells (U-87); conditions: 3D collagen gel
Protocol: as §1

[8] = tested on: osteosarcoma cells (MG-63); conditions: bone cancer cells, 3D collagen gel
Protocol: as §1

| Substance | tumors completely regressed and totally disappeared [1] [%] | reduction of tumor growth ([1]; 26 days post-implantation) [%] | inhibition of Src-mediated tyrosine phosphorylation of GST-MT [2] | effect on tumor cell proliferation in 2D conditions (tumor cell lines) | reduction of proliferation in 3D matrix [3] | inhibition of 3D proliferation [4] | inhibition of 3D proliferation [5] | inhibition of 3D proliferation [6] | reduction of proliferation in 3D matrix [7] | inhibition of 3D proliferation [8] |
| --- | --- | --- | --- | --- | --- | --- | --- | --- | --- | --- |
| Biotin-Ahx-RQIKIWFQNRRMKWKK-RRHGTPRRLLFCQRSLLDKV [ACM-14] | 17 | 70 | completely inhibited | does not affect | 35% | inhibits | inhibits | inhibits | 50% | inhibits |
| Biotin-Ahx-RQIKIWFQNRRMKWKK-TLRQRRCLPHFDSGLRKVRL [scACM-14, reference compound] | – | – | not observed | – | no effect | – | – | – | no effect | – |
